Experimental data as given in publication PMC4457528, “Identification of Novel Small Molecule Inhibitors of Oncogenic RET Kinase” (PLoS ONE, 2015).

Key:
Assay in all cases: KinomeScan kinase panel, single concentration 10 µM
Assay type in all cases: binding
KinomeScan kinase panel [1] = target: T1, KinomeScan kinase panel (Homo sapiens, UniProt Q02750); settings: MEK1, 10 µM; read-out: score (%)
T1 construct: purchased DiscoveRx (KinomeScan)

KinomeScan kinase panel [2] = target: T2, KinomeScan kinase panel (Homo sapiens, UniProt Q12866); settings: MERTK, 10 µM; read-out: score (%)
T2 construct: purchased DiscoveRx (KinomeScan)
T2 sequence (Q12866 21-999): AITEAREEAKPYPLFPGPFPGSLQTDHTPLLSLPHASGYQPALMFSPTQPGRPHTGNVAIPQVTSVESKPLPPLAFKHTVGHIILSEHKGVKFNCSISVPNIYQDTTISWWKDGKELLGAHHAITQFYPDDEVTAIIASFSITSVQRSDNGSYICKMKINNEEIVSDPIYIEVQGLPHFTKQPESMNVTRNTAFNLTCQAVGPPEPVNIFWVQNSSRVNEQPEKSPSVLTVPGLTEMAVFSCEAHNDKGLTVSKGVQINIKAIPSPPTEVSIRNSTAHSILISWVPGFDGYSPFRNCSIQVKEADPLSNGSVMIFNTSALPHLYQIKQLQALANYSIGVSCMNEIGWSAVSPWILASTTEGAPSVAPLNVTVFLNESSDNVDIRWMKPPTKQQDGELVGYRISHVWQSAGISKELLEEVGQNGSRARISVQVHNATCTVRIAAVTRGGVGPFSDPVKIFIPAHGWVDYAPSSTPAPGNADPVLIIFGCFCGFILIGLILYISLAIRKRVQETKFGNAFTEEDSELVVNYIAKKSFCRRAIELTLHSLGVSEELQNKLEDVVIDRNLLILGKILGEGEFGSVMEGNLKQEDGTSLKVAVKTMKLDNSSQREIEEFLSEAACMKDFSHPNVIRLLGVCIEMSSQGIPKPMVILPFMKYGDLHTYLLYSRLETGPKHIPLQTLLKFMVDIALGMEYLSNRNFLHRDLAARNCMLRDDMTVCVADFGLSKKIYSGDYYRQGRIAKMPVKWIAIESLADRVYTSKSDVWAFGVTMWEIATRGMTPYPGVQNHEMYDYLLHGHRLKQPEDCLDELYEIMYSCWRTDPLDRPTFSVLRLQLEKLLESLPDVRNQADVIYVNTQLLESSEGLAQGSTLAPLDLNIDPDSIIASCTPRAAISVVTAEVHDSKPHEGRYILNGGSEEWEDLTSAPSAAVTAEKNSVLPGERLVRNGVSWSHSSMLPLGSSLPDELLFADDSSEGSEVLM

KinomeScan kinase panel [3] = target: T3, KinomeScan kinase panel (Homo sapiens, UniProt P27448); settings: MARK3, 10 µM; read-out: score (%)
T3 construct: purchased DiscoveRx (KinomeScan)
T3 sequence (P27448 whole entry): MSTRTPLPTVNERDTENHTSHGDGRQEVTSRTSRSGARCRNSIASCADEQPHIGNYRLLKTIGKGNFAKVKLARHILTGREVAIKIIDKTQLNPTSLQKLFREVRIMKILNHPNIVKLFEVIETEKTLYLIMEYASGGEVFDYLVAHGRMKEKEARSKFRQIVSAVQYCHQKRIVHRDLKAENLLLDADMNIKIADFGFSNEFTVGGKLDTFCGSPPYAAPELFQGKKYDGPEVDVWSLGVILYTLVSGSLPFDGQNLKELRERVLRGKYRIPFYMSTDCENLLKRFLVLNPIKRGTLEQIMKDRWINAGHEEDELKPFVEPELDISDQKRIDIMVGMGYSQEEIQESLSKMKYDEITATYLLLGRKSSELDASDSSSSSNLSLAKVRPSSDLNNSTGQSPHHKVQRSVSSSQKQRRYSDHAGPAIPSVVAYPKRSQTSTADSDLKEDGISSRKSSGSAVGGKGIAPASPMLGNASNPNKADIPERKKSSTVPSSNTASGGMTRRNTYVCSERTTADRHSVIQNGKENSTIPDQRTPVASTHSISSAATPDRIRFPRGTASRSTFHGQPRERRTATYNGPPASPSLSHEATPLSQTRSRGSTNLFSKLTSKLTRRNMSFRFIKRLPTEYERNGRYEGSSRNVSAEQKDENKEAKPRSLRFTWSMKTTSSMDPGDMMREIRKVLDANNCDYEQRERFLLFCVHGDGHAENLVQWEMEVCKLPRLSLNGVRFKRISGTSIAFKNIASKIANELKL

KinomeScan kinase panel [4] = target: T4, KinomeScan kinase panel (Homo sapiens, UniProt P54764); settings: EPHA4, 10 µM; read-out: score (%)
T4 construct: purchased DiscoveRx (KinomeScan)
T4 sequence (P54764 20-986): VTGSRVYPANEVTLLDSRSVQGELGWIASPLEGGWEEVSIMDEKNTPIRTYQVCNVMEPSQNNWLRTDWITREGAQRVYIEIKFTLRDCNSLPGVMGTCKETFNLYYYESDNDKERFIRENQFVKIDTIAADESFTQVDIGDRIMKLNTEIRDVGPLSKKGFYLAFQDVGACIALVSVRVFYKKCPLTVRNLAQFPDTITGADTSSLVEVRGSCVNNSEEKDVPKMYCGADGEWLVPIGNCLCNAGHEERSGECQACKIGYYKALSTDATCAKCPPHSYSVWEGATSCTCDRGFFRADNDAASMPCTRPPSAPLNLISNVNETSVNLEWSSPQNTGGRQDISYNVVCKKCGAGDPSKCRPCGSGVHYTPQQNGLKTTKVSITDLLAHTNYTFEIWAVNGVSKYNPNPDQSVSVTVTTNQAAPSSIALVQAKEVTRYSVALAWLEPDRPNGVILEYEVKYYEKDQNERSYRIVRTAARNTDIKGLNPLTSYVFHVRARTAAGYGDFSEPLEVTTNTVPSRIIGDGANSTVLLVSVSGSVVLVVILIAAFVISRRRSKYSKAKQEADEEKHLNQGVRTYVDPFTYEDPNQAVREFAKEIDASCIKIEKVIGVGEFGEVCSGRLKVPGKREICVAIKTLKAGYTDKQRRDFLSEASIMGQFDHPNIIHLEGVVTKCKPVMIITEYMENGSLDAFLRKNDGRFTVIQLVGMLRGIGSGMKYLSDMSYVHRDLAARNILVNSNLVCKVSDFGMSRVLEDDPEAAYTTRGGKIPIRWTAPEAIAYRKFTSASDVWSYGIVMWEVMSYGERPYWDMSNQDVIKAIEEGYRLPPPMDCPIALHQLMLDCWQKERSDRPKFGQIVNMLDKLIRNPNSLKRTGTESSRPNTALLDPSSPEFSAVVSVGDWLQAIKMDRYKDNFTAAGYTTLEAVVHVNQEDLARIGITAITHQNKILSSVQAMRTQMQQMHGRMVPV

KinomeScan kinase panel [5] = target: T5, KinomeScan kinase panel (Homo sapiens, UniProt O15146); settings: MUSK, 10 µM; read-out: score (%)
T5 construct: purchased DiscoveRx (KinomeScan)
T5 sequence (O15146 24-869): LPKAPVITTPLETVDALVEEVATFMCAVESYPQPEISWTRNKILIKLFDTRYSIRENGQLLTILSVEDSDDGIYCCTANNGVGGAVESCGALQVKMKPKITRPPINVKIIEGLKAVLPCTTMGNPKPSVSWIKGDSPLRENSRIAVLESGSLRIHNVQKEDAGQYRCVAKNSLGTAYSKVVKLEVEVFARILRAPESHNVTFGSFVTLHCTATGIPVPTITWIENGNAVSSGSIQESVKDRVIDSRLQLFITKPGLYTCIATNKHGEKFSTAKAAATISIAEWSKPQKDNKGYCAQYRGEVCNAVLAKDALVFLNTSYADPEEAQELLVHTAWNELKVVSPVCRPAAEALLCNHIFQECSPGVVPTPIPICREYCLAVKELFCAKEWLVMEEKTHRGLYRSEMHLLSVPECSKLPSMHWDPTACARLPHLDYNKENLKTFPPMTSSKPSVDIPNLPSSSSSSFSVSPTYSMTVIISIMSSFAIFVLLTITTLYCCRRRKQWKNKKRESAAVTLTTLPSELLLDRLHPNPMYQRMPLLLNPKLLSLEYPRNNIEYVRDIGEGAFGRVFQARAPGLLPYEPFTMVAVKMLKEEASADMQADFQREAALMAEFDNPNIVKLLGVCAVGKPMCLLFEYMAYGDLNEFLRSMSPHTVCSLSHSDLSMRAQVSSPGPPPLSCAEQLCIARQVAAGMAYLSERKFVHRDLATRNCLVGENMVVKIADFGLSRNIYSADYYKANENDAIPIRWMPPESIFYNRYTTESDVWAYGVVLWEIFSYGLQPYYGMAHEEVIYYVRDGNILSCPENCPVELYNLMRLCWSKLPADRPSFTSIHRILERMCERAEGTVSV

KinomeScan kinase panel [6] = target: T6, KinomeScan kinase panel (Homo sapiens, UniProt Q15831); settings: LKB1, 10 µM; read-out: score (%)
T6 construct: purchased DiscoveRx (KinomeScan)
T6 sequence (Q15831 1-433): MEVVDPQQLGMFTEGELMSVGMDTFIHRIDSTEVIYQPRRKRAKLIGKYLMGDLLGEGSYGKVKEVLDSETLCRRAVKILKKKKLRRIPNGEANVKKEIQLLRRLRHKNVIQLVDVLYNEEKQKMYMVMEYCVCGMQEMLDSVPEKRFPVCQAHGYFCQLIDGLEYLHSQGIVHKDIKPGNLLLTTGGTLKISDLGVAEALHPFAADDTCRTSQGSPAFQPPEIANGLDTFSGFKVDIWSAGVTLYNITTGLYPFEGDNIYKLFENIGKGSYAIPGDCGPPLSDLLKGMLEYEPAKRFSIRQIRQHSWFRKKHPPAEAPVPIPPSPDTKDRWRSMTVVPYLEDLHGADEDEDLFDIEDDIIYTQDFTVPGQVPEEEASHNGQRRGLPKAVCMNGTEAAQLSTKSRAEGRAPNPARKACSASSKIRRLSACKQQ

T1 sequence (Q02750 whole entry): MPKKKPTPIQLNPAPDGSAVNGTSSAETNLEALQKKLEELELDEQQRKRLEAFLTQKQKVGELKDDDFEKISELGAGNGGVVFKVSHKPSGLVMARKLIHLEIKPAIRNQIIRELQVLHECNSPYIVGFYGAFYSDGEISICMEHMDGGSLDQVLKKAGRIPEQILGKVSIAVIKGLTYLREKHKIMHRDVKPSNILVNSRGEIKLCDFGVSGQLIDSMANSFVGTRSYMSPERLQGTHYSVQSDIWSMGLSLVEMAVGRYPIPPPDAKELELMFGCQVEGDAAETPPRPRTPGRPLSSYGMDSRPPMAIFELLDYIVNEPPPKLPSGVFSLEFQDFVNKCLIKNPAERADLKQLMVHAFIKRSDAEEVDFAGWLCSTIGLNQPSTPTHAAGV

| SMILES | remaining binding at 10 µM (KinomeScan kinase panel [1]) [%] | remaining binding at 10 µM (KinomeScan kinase panel [2]) [%] | remaining binding at 10 µM (KinomeScan kinase panel [3]) [%] | remaining binding at 10 µM (KinomeScan kinase panel [4]) [%] | remaining binding at 10 µM (KinomeScan kinase panel [5]) [%] | remaining binding at 10 µM (KinomeScan kinase panel [6]) [%] |
| --- | --- | --- | --- | --- | --- | --- |
| CCN1CCN(Cc2ccc(NC(=O)c3ccc(C)c(C#Cc4cccnc4)c3)cc2C(F)(F)F)CC1 [XMD15-44] | > 30 | 5.2 | > 30 | 0 | 0.05 | > 30 |
| CCN1CCN(Cc2ccc(NC(=O)c3ccc(C)c(/C=C/c4cnc5[nH]ccc5c4Cl)c3)cc2C(F)(F)F)CC1 [HG-6-63-01, (E)-3-(2-(4-chloro-1H-pyrrolo[2,3-b]pyridin-5-yl)vinyl)-N-(4-((4-ethylpiperazin-1-yl)methyl)-3-(trifluoromethyl)phenyl)-4-methylbenzamide] | > 30 | > 30 | 29 | 0.55 | 0.05 | 29 |
| CCN1CCN(Cc2ccc(NC(=O)c3ccc(C)c(NC(=O)c4cncc(-c5cccs5)c4)c3)cc2C(F)(F)F)CC1 [ALW-II-41-27] | > 30 | > 30 | > 30 | 0 | 0.1 | > 30 |
